Test [1] has as its target T1, Glucose-6-Phosphate Dehydrogenase (G6PD) (Homo sapiens, UniProt P11413). The test can be described thus: residual activity of purified recombinant enzyme (NADPH at […] nm) after […] h incubation; supported by CD and intrinsic fluorescence. It is filed as biochemical.
Test [2] has as its target T1, Glucose-6-Phosphate Dehydrogenase (G6PD). The test can be described thus: residual activity of purified recombinant enzyme (NADPH at […] nm) after […] h incubation; supported by intrinsic fluorescence (minimal CD change). Type of test: biochemical.

What is called IC50 is the concentration at which inhibition is half-maximal.

T1 sequence (P11413 2-515): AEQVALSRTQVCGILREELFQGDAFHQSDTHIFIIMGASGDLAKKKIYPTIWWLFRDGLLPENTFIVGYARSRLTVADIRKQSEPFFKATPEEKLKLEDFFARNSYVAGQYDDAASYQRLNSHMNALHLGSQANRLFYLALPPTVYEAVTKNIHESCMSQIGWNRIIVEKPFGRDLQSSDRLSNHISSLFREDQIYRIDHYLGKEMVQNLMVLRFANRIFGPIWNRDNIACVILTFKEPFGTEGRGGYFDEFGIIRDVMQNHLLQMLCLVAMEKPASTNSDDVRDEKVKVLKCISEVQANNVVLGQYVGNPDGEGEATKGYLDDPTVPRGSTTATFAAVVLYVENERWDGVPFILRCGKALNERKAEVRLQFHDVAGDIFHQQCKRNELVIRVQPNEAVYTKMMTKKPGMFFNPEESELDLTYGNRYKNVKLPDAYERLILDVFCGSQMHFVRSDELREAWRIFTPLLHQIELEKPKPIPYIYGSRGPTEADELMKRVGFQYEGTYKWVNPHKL

`O=[N+]([O-])c1ccc2nc([S+]([O-])Cc3ccccn3)[nH]c2c1` (stereo not drawn) [BZM-7]: in test [1] (read-out: IC50), the IC50 stood at 40 µM.
As to `Cc1cnc(C[S+]([O-])c2nc3cc([N+](=O)[O-])ccc3[nH]2)c(C)c1OCC(F)(F)F` (stereo not drawn) [BZM-9], the IC50 in test [2] stood at 42 µM.
Turning to `O=C(Nc1ccc(Cl)cc1)Nc1ncc([N+](=O)[O-])s1` [CNZ-3], the IC50 in test [1] turned out to be 121 µM.

Values taken from PMC12469827, “Targeting G6PD with Benzimidazole and Thiazole Derivatives Suppresses SIRT 2 and VEGF Expression and Induces Cytotoxicity in Glioma Cells” (International Journal of Molecular Sciences, 2025).
